Test results taken from paper PMC8908507 (ACS Omega, 2022).
“Also recorded” adds a separate entry of the source.

Experiments:
MAO-B [1] = conditions: cited from earlier work
BACE1 = BACE1 (Homo sapiens, UniProt P56817); test: biochemical; conditions: read-out: residual activity (%) BACE1
MAO-B [2] = biological target: T1, MAO-B (Homo sapiens, UniProt P27338); test: MAO-B inhibition, recombinant enzyme, benzylamine substrate; assay type: biochemical; conditions: for SI (MAO-B compared with MAO-A): IC50 (MAO-A)/IC50 (MAO-B); for IC50: IC50 MAO-B; for remaining activity at 1 µM: read-out: residual activity (%) MAO-B
T1 sequence (P27338 1-520): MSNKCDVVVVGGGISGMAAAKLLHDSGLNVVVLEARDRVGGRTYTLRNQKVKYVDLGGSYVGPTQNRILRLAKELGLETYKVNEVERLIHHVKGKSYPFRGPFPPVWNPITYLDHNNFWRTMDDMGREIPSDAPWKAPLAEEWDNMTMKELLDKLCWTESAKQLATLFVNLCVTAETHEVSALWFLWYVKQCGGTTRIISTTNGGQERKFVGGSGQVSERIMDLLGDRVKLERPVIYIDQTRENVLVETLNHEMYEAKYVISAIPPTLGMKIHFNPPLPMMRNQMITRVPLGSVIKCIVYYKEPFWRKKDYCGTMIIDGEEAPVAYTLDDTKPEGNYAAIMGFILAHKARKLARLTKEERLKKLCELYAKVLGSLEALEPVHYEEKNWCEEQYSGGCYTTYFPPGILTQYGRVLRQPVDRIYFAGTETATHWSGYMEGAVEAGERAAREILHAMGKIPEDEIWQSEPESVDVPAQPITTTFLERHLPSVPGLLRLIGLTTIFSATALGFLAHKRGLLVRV

AChE = AChE (Electrophorus electricus, UniProt O42275); test: AChE inhibition; conditions: 10 μM
BChE = BChE (Equus caballus, UniProt P81908); conditions: 10 μM
MAO-A = biological target: T2, MAO-A (Homo sapiens, UniProt P21397); test: biochemical; conditions: for remaining activity at 10 µM: read-out: residual activity (%) MAO-A
T2 sequence (P21397 1-527): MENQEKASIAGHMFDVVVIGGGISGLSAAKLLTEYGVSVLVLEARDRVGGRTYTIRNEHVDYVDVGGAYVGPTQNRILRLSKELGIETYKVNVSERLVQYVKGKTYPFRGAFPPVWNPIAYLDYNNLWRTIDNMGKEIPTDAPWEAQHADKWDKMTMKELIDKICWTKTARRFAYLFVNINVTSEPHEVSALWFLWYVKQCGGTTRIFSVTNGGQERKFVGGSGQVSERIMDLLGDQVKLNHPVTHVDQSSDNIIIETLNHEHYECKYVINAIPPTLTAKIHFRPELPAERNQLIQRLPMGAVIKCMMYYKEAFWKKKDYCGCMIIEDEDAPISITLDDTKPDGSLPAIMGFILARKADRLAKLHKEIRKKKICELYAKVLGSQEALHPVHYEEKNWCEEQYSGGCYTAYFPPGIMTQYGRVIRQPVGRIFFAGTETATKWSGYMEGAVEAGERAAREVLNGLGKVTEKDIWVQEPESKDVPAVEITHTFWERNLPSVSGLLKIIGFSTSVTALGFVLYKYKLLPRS

Vero cells [3] = test: Cytotoxicity on Vero cells, MTT method; assay type: cell-based, African green monkey; conditions: 100 μg/mL, 24 h
Vero cells [4] = test: Intracellular ROS assay in H2O2-treated Vero cells; assay type: cell-based, African green monkey; conditions: 24 h drug treatment, vs H2O2-treated control
[5] = Cytotoxicity on Vero cells, MTT method; assay type: cell-based, African green monkey; conditions: African green monkey, Vero cells (normal kidney epithelial cell line)
MAO-B [6] = biological target: T1, MAO-B; test: Reversibility of MAO-B inhibition by dialysis; assay type: biochemical

Sequence of BACE1 (P56817 46-501): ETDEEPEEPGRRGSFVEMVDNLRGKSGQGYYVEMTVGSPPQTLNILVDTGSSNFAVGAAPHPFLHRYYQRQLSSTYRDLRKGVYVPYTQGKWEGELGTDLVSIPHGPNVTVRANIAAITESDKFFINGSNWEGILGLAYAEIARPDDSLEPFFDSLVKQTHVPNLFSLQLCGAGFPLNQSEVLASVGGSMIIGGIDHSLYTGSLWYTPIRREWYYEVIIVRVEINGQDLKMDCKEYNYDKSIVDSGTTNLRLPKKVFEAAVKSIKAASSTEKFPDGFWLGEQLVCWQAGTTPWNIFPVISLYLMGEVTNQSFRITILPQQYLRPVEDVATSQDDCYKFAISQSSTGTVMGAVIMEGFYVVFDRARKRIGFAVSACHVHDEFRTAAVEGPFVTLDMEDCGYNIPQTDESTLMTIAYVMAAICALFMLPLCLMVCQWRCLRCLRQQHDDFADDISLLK
Sequence of AChE (O42275 24-633): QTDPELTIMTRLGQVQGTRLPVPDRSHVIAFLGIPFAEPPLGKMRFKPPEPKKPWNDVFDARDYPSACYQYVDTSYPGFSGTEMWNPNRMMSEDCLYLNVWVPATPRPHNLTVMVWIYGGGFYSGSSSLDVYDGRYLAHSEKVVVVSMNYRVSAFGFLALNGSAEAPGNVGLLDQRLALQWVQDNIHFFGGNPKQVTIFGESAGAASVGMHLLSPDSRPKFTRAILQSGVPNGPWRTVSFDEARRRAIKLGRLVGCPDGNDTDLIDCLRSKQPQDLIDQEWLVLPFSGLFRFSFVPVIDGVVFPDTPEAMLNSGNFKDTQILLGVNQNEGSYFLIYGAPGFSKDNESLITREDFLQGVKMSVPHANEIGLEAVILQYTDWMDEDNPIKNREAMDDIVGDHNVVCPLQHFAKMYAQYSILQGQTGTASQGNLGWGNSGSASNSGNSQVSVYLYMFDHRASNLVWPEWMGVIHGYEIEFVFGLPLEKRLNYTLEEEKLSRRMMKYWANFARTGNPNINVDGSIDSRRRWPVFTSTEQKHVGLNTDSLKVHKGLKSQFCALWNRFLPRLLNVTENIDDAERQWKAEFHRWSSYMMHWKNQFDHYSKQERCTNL
Sequence of BChE (P81908 whole entry): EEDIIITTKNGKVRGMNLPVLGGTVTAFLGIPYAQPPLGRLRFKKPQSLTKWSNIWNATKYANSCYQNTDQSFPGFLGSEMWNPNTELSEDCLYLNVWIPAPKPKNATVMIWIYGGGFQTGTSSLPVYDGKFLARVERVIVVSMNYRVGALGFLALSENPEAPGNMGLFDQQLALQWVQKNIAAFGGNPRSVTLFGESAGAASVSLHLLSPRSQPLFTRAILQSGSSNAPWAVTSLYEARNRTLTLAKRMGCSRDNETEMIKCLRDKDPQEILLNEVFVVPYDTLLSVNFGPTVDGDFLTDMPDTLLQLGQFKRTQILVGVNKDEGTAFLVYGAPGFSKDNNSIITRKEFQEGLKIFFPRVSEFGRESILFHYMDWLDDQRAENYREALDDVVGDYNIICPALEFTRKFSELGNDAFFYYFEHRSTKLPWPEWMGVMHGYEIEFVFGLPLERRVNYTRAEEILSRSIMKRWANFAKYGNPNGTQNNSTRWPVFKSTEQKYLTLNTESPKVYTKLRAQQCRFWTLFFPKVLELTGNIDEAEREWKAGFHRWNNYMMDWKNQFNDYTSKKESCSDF

Row | Compound | SI value (MAO-B [1]) | IC50 (MAO-B [1]; read-out: IC50 MAO-B) | Ki (MAO-B [1]; read-out: Ki MAO-B) | remaining activity at 10 µM (BACE1) | SI (MAO-B compared with MAO-A) (MAO-B [2]) | IC50 (MAO-B [2]) | remaining activity at 1 µM (MAO-B [2]) | residual activity (%) AChE (AChE) | residual activity (%) BChE (BChE) | IC50 (MAO-A) | remaining activity at 10 µM (MAO-A) | toxicity by cellular morphology, phase-contrast microscopy (Vero cells [3]) | intracellular ROS scavenging (Vero cells [4]) | viability at 24 h, 60 μg/mL [5] | viability at 24 h, 80 μg/mL [5] | relative MAO-B activity, dialyzed (AD) (MAO-B [6]; MK6/MK12 6.0 nM, lazabemide 0.22 μM, pargyline 0.28 μM, after dialysis) | relative MAO-B activity, undialyzed (AU) (MAO-B [6]; MK6/MK12 6.0 nM, lazabemide 0.22 μM, pargyline 0.28 μM, preincubation 30 min) | reversibility of MAO-B inhibition (MAO-B [6]; dialysis)
1 | O=C(C=CC=Cc1ccccc1)c1ccc(N2CCOCC2)cc1 [MO10, 1-[4-(morpholin-4-yl)phenyl]-5-phenylpenta-2,4-dien-1-one] | 366.13 | 44 nM | 8 ± 3 nM |  |  |  |  |  |  |  |  |  |  |  |  |  |  | 
2 | O=C(/C=C/C=C/c1ccc(F)cc1)c1ccc(Br)cc1 [MK9, (2E,4E)-1-(4-Bromophenyl)-5-(4-fluorophenyl)penta-2,4-dien-1-one] |  |  |  | 65 ± 1.61% | 1671.7 | 13.5 ± 1.06 nM | 2.6 ± 0.57% | 57.7 ± 0.00% | 87.4 ± 6.95% | 22500 ± 47 nM | 74.9 ± 1.29% |  |  |  |  |  |  | 
3 | O=C(/C=C/C=C/c1ccc(Br)cc1)c1ccc(Br)cc1 [MK7, (2E,4E)-1,5-Bis(4-bromophenyl)penta-2,4-dien-1-one] |  |  |  | 84.5 ± 0.91% | 1400.0 | 15.5 ± 0.06 nM | 8.9 ± 0.15% | 75.8 ± 0.73% | 99.2 ± 1.09% | 21700 ± 2010 nM | 85.4 ± 1.99% |  |  |  |  |  |  | 
4 | O=C(/C=C/C=C/c1ccc([N+](=O)[O-])cc1)c1ccc(Cl)cc1 [MK5, (2E,4E)-1-(4-Chlorophenyl)-5-(4-nitrophenyl)penta-2,4-dien-1-one] |  |  |  | 73.3 ± 2.51% | 4783.0 | 4.02 ± 0.13 nM | 5.81 ± 0.27% | 74.1 ± 1.42% | 71.6 ± 1.05% | 19200 ± 940 nM | 72.9 ± 0.44% | no signs of toxicity | significant scavenging effect of reactive oxygen species; also recorded: significant ROS scavenging effect |  |  |  |  | 
5 | O=C(/C=C/C=C/c1ccc(Br)cc1)c1ccc(F)cc1 [MK11, (2E,4E)-5-(4-Bromophenyl)-1-(4-fluorophenyl)penta-2,4-dien-1-one] |  |  |  | 71.4 ± 1.03% | 1394.7 | 19.8 ± 0.53 nM | 3.45 ± 0.21% | 77.8 ± 2.19% | 89.2 ± 6.58% | 27500 ± 820 nM | 76.9 ± 3.02% |  |  |  |  |  |  | 
6 | O=C(/C=C/C=C/c1ccc(F)cc1)c1ccc(Cl)cc1 [MK4, (2E,4E)-1-(4-Chlorophenyl)-5-(4-fluorophenyl)penta-2,4-dien-1-one] |  |  |  | 72.5 ± 0.9% | 1609.8 | 9.67 ± 0.47 nM | 1.61 ± 2.28% | 90.7 ± 0.57% | 94.9 ± 7.16% | 15600 ± 630 nM | 77 ± 6.2% |  |  |  |  |  |  | 
7 | O=C(/C=C/C=C/c1ccc([N+](=O)[O-])cc1)c1ccc(Br)cc1 [MK10, (2E,4E)-1-(4-Bromophenyl)-5-(4-nitrophenyl)penta-2,4-dien-1-one] |  |  |  | 69.4 ± 1.03% | 481.0 | 40.6 ± 0.87 nM | 3.4 ± 0.14% | 84.0 ± 0.73% | 87.9 ± 1.86% | 19500 ± 590 nM | 69.1 ± 1.32% |  |  |  |  |  |  | 
8 | COc1ccc(/C=C/C=C/C(=O)c2ccc(Br)cc2)cc1 [MK8, (2E,4E)-1-(4-Bromophenyl)-5-(4-methoxyphenyl)penta-2,4-dien-1-one] |  |  |  | 80.9 ± 1.67% | 1443.8 | 16.7 ± 0.62 nM | 7.85 ± 0.22% | 86.1 ± 5.10% | 80.7 ± 7.70% | 24100 ± 38 nM | 69.6 ± 2.03% |  |  |  |  |  |  | 
9 | COc1ccc(/C=C/C=C/C(=O)c2ccccc2)cc1 [MK14, (2E,4E)-5-(4-Methoxyphenyl)-1-phenylpenta-2,4-dien-1-one] |  |  |  | 77.3 ± 1.23% | 3871.5 | 4.89 ± 0.17 nM | -0.95% | 84.7 ± 5.62% | 89.0 ± 1.55% | 18900 ± 1020 nM | 61.4 ± 6.27% | no signs of toxicity | significant scavenging effect of reactive oxygen species; also recorded: significant ROS scavenging effect | > 80% |  |  |  | 
10 | O=C(/C=C/C=C/c1ccccc1)c1ccc(Br)cc1 [MK6, (2E,4E)-1-(4-Bromophenyl)-5-phenylpenta-2,4-dien-1-one] |  |  |  | 74.1 ± 1.48% |  |  |  | 74.7 ± 0.66% | 97.5 ± 3.58% | 20600 ± 1020 nM | 84 ± 1.22% | no signs of toxicity | significant scavenging effect of reactive oxygen species; also recorded: significant ROS scavenging effect |  | > 70% | 79.2% | 34.9% | reversible inhibitors
11 | COc1ccc(/C=C/C=C/C(=O)c2ccc(Cl)cc2)cc1 [MK3, (2E,4E)-1-(4-Chlorophenyl)-5-(4-methoxyphenyl)penta-2,4-dien-1-one] |  |  |  | 84.8 ± 0.53% | 1290.2 | 13.1 ± 0.81 nM | 5.81 ± 0.27% | 81.4 ± 1.06% | 83.2 ± 0.46% | 16900 ± 500 nM | 73.6 ± 2.83% |  |  |  |  |  |  | 
12 | O=C(/C=C/C=C/c1ccc([N+](=O)[O-])cc1)c1ccc(F)cc1 [MK13, (2E,4E)-1-(4-Fluorophenyl)-5-(4-nitrophenyl)penta-2,4-dien-1-one] |  |  |  | 76.7 ± 0.64% | 5635.2 | 4.24 ± 0.13 nM | 1.95 ± 0.067% | 91.5 ± 0.80% | 97.8 ± 1.55% | 23700 ± 170 nM | 71.5 ± 8.06% |  |  |  |  |  |  | 
13 | O=C(/C=C/C=C/c1ccc(Br)cc1)c1ccc(Cl)cc1 [MK2, (2E,4E)-5-(4-Bromophenyl)-1-(4-chlorophenyl)penta-2,4-dien-1-one] |  |  |  | 81.4 ± 0.97% | 232.4 | 101 ± 1.63 nM | 14.3 ± 0.43% | 82.4 ± 0.98% | 95.4 ± 2.86% | 23500 ± 860 nM | 97.8 ± 0.16% |  |  |  |  |  |  | 
14 | O=C(/C=C/C=C/c1ccc([N+](=O)[O-])cc1)c1ccccc1 [MK15, (2E,4E)-5-(4-Nitrophenyl)-1-phenylpenta-2,4-dien-1-one] |  |  |  | 89.5 ± 0.92% | 1025.8 | 12.4 ± 7.92 nM | -3.52% | 68.8 ± 0.80% | 80.2 ± 1.55% | 12700 ± 570 nM | 54.4 ± 5.37% |  |  |  |  |  |  | 
15 | O=C(/C=C/C=C/c1ccccc1)c1ccc(Cl)cc1 [MK1, (2E,4E)-1-(4-Chlorophenyl)-5-phenylpenta-2,4-dien-1-one] |  |  |  | 77.1 ± 0.0087% | 1498.2 | 11.2 ± 1.65 nM | 2.17 ± 1.49% | 84.0 ± 0.23% | 94.1 ± 4.72% | 16700 ± 400 nM | 83 ± 2.71% |  |  |  |  |  |  | 
